According to US11208412B2 (DAEGU-GYEONGBUK MEDICAL INNOVATION FOUNDATION, priority 2017, dated 2021):

Experiments:
Test in all cases: Kinase selectivity, DiscoverX scanMAX Kinase assay panel (% control)
Format in all cases: binding
[1] = target: T1, kinases of the scanMAX Kinase assay panel (Homo sapiens, UniProt Q9UM73, L1196M); settings: ALK(L1196M); 1 uM
T1 construct: purchased DiscoverX Co. (contract measurement) scanMAX Kinase assay panel
In short: (§1)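 Single-point screen, 1 uM cpd in DMSO. % ctrl = (cpd − pos ctrl)/(neg ctrl − pos ctrl)×100; pos ctrl = 0%, DMSO neg ctrl = 100%. Hit cutoff <35%.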

[2] = target: T2, kinases of the scanMAX Kinase assay panel (Homo sapiens, UniProt P21860); settings: ERBB3; 1 uM
T2 construct: purchased DiscoverX Co. (contract measurement) scanMAX Kinase assay panel
In short: as §1

[3] = target: T3, kinases of the scanMAX Kinase assay panel (Homo sapiens, UniProt Q14289); settings: PYK2; 1 uM
T3 construct: purchased DiscoverX Co. (contract measurement) scanMAX Kinase assay panel
T3 sequence (Q14289 whole entry): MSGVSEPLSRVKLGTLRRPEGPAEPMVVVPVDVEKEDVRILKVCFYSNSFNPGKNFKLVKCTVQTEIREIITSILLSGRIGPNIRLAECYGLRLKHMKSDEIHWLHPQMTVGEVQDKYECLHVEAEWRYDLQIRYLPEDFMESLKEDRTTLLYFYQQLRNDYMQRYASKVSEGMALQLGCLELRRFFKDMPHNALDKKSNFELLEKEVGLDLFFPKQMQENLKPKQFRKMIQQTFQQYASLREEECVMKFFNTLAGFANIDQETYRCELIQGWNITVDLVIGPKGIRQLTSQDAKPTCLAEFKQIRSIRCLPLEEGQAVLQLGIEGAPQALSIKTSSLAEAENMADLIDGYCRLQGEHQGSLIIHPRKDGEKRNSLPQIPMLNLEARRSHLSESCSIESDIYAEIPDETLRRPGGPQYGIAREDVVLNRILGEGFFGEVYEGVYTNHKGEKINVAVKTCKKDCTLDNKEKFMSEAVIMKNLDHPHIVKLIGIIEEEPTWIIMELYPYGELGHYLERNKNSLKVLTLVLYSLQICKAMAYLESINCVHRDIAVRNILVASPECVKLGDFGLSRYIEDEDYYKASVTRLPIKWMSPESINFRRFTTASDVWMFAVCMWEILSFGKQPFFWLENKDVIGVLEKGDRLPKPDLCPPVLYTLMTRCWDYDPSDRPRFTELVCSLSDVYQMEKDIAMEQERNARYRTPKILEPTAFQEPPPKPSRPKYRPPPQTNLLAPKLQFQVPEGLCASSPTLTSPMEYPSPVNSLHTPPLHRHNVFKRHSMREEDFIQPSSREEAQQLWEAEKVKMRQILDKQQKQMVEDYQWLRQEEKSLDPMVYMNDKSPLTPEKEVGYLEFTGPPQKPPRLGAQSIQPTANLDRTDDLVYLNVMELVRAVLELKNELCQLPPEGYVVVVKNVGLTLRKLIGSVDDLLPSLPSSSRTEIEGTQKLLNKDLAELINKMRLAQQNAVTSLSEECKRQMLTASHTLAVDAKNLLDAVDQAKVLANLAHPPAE
In short: as §1

[4] = target: T4, kinases of the scanMAX Kinase assay panel (Homo sapiens, UniProt P15735); settings: PHKG2; 1 uM
T4 construct: purchased DiscoverX Co. (contract measurement) scanMAX Kinase assay panel
T4 sequence (P15735 1-406): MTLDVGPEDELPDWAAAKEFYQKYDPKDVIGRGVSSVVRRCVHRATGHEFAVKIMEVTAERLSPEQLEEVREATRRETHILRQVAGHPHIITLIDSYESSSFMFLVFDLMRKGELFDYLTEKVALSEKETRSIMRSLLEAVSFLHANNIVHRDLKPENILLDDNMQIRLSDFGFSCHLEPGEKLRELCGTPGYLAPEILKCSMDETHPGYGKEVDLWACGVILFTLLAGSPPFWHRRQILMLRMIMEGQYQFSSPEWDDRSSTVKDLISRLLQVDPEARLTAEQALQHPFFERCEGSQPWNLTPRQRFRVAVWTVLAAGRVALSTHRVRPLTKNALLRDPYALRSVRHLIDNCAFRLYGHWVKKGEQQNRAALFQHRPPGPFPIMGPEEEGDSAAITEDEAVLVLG
In short: as §1

[5] = target: T5, kinases of the scanMAX Kinase assay panel (Homo sapiens, UniProt P29317); settings: EPHA2; 1 uM
T5 construct: purchased DiscoverX Co. (contract measurement) scanMAX Kinase assay panel
In short: as §1

[6] = target: T6, kinases of the scanMAX Kinase assay panel (Homo sapiens, UniProt P57059); settings: kinase SIK; 1 uM in DMSO
T6 construct: purchased DiscoverX Co. (contract measurement) scanMAX Kinase assay panel
In short: as §1

[7] = target: T7, kinases of the scanMAX Kinase assay panel (Homo sapiens, UniProt P00533, L861Q); settings: EGFR(L861Q); 1 uM
T7 construct: purchased DiscoverX Co. (contract measurement) scanMAX Kinase assay panel
T7 sequence (P00533 25-1210 L861Q): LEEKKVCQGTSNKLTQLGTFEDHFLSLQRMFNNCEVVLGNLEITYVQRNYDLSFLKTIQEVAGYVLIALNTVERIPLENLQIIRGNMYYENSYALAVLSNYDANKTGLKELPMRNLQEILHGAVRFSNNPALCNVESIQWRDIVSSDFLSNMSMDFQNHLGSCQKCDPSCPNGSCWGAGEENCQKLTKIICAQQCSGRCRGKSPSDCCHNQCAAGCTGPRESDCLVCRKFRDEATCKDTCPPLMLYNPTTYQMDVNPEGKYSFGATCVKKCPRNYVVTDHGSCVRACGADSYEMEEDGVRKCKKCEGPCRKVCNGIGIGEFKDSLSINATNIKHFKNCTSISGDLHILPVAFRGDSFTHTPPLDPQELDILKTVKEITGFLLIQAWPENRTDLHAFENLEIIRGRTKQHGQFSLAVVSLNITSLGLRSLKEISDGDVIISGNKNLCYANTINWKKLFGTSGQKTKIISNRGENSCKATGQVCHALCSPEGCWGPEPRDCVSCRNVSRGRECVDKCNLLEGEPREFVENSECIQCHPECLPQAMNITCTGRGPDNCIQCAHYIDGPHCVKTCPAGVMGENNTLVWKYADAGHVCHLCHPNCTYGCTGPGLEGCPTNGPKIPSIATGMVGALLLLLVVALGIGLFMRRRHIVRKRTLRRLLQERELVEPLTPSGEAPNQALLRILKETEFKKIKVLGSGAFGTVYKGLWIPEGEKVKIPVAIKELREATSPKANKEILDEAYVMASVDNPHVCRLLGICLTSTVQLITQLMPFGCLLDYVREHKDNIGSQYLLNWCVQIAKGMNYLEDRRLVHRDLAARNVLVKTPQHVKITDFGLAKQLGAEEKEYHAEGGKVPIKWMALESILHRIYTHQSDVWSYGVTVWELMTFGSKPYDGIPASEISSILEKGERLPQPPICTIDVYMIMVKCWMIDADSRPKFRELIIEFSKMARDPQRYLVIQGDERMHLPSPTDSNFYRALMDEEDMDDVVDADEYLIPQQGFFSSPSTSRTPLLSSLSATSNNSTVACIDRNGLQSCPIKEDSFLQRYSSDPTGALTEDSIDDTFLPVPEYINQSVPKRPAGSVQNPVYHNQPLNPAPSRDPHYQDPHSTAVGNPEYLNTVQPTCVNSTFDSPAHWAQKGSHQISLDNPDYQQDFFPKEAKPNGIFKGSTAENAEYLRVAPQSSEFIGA
In short: as §1

[8] = target: T8, kinases of the scanMAX Kinase assay panel (Homo sapiens, UniProt O75747); settings: PIK3C2G; 1 uM
T8 construct: purchased DiscoverX Co. (contract measurement) scanMAX Kinase assay panel
T8 sequence (O75747 1-1486): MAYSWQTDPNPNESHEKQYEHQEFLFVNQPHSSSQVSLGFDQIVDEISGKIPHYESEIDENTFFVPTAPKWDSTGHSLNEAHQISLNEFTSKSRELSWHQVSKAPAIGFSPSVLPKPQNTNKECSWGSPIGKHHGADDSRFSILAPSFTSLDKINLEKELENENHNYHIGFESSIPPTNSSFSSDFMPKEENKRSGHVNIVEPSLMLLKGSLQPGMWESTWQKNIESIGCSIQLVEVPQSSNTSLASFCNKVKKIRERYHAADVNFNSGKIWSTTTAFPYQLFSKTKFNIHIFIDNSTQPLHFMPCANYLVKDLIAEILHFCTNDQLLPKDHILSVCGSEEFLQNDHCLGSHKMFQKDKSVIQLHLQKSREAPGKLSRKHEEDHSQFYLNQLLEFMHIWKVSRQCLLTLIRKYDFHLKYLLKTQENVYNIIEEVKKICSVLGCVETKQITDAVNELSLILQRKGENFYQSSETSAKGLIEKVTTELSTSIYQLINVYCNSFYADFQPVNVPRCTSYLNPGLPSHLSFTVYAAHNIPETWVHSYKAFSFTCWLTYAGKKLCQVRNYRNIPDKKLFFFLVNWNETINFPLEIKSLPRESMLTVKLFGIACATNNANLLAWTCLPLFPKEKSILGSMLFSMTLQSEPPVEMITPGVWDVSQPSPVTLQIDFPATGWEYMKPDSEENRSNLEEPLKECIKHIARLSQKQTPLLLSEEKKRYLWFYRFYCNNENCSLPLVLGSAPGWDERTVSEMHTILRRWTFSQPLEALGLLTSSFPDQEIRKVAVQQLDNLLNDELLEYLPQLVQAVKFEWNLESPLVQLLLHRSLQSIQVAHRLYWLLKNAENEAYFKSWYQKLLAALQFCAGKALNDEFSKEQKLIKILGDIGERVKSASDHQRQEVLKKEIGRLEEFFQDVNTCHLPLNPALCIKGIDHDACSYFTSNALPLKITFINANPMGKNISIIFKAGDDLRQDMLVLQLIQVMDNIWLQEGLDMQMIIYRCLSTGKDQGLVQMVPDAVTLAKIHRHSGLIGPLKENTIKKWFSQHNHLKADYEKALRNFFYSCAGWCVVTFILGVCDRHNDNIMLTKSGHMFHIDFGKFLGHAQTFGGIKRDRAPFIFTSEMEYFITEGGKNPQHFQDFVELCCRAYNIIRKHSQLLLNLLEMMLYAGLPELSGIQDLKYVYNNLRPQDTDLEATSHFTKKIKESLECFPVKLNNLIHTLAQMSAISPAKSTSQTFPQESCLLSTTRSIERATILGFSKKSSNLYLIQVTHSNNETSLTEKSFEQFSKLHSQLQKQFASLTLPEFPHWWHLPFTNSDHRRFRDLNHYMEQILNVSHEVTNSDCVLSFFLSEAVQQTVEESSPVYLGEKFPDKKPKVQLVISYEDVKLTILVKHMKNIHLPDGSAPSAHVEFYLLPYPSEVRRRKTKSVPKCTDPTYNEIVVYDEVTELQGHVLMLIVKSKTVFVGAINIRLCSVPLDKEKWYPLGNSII
In short: as §1

[9] = target: T9, kinases of the scanMAX Kinase assay panel (Homo sapiens, UniProt Q15759); settings: p38-beta; 1 uM
T9 construct: purchased DiscoverX Co. (contract measurement) scanMAX Kinase assay panel
T9 sequence (Q15759 whole entry): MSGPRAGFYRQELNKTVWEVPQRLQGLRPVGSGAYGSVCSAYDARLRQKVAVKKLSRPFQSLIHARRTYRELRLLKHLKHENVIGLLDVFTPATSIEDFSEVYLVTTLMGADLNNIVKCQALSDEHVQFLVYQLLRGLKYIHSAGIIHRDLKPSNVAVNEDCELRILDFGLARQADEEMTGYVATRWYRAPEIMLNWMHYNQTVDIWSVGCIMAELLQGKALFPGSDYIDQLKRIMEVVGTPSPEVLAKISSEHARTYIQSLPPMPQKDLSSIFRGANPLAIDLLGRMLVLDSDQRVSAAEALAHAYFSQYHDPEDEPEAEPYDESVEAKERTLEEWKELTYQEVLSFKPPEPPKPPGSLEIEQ
In short: as §1

[10] = target: T10, kinases of the scanMAX Kinase assay panel (Homo sapiens, UniProt P31749); settings: AKT1; 1 uM
T10 construct: purchased DiscoverX Co. (contract measurement) scanMAX Kinase assay panel
T10 sequence (P31749 whole entry): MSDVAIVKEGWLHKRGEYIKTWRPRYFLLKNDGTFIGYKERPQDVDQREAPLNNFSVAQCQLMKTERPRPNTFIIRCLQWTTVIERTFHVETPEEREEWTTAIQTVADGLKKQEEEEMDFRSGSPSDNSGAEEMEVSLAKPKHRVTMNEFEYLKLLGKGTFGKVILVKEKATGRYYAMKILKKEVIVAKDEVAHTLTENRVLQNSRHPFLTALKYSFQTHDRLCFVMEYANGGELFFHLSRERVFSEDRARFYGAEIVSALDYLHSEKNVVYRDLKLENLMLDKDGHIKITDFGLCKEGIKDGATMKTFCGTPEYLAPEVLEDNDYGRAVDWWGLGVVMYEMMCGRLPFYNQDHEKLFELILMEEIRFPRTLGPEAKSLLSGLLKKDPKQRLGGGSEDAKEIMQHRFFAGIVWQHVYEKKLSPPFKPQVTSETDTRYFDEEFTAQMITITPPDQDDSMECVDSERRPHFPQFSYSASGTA
In short: as §1

T1 sequence (Q9UM73 19-1620 L1196M): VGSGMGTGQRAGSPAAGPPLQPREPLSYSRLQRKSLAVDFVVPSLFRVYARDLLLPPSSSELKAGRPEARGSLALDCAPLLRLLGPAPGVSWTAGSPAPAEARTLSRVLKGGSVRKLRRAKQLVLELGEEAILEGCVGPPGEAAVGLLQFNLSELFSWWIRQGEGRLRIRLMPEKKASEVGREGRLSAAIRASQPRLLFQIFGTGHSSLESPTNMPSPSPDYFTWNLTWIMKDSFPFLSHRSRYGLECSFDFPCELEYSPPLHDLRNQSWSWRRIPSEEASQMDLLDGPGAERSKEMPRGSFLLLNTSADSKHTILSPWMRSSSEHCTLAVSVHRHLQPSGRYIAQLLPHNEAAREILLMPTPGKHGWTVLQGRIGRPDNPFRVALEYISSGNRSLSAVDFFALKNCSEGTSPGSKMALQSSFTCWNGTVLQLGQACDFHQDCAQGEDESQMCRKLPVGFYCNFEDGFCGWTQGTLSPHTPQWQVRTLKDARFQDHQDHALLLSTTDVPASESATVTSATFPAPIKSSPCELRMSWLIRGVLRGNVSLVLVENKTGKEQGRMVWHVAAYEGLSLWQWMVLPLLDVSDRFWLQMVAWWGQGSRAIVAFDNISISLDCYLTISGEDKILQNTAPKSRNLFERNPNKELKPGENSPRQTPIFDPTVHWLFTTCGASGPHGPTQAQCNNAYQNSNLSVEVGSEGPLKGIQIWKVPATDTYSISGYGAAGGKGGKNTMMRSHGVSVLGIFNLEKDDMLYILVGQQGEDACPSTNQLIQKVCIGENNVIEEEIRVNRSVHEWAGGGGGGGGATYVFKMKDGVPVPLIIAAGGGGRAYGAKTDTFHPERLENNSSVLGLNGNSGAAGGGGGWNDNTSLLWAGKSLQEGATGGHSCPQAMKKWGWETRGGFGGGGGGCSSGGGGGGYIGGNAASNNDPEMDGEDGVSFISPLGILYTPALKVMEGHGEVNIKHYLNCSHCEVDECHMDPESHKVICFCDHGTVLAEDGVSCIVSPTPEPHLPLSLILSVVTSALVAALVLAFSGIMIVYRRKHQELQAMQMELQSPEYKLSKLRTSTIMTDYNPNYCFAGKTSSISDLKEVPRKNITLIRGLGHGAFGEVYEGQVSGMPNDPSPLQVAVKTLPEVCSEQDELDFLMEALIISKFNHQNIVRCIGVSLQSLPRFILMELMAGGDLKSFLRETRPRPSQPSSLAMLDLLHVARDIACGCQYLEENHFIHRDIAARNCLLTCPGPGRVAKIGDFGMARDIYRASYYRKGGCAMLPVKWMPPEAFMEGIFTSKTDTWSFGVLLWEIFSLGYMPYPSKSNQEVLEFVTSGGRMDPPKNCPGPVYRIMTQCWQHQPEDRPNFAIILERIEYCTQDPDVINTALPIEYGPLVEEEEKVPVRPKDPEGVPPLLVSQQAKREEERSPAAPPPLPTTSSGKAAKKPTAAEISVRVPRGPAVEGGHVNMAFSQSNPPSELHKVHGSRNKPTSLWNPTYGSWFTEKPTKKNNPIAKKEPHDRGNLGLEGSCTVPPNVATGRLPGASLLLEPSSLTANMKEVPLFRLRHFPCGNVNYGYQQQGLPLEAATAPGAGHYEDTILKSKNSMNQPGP

Row | Structure (SMILES) | remaining binding at 1 µM [1] [%] | remaining binding at 1 µM [2] [%] | remaining binding at 1 µM [3] [%] | remaining binding at 1 µM [4] [%] | remaining binding at 1 µM [5] [%] | remaining binding at 1 µM [6] [%] | remaining binding at 1 µM [7] [%] | remaining binding at 1 µM [8] [%] | remaining binding at 1 µM [9] [%] | remaining binding at 1 µM [10] [%]
1 | CNc1nc(Nc2ccc(C(=O)N3CCOCC3)cc2OC)nc2[nH]cc(C#N)c12 [Example 1, 2-((2-methoxy-4-(morpholine-4-carbonyl)phenyl)amino)-4-(methylamino)-7H-pyrrolo[2,3-d]pyrimidine-5-carbonitrile] | 33 | 68 | 25 | 14 | 97 | 97 | 100 | 99 | 98 | 83
2 | CC1(Nc2nc(Nc3cnn([C@H]4CCN(C5COC5)C[C@@H]4F)c3Cl)nc3[nH]cc(C#N)c23)CC1 [Example 52, 2-((5-chloro-1-((3S,4S)-3-fluoro-1-(oxetane-3-yl)piperidine-4-yl)-1H-pyrazole-4-yl)amino)((1-methylcyclopropyl)amino)-7H-pyrrolo[2,3-d]pyrimidine-5-carbonitrile] | 9.9 | 100 | 1.2 | 5.2 | 79 | 78 | 53 | 72 | 92 | 100
3 | CCNc1nc(Nc2ccc(C(=O)N3CCC(N4CCOCC4)CC3)cc2OC)nc2[nH]cc(C(F)(F)F)c12 [Example 104, (4-((4-(ethylamino)-5-(trifluoromethyl)-7H-pyrrolo[2,3-d]pyrimidine-2-yl)amino)-3-methoxyphenyl)(4-morpholinopiperidine-1-yl)methanone] | 0.75 | 100 | 2.8 | 9.3 | 100 | 100 | 99 | 86 | 100 | 100
